Measurements as given in patent US20260297060A1, “COMPOUNDS FOR THE DEGRADATION OF MUTANT BRAF” (C4 THERAPEUTICS, INC., priority 2023, published 2026).

System: A375-NRAS^Q61K cells
Assay: CTGlo Cell Viability Assay, A375-NRAS^Q61K (A375.11) cells, 96 hours
Type: cell-based, human
Settings: A375.11 (A375-NRAS^Q61K) cells; for Emax: lowest % viability achieved
Method in brief: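 Viability as CellTiter-Glo ATP luminescence after 96 h compound exposure at 37 °C; A375.11 (BRAF V600E/NRAS Q61K) cells at 250/well, top final concentration 10 μM in half-log steps. Signal was background-corrected and set relative to DMSO controls. A 4-parameter logistic fit gave GI50 (50% crossing) and Emax.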

GI50 (Homo sapiens, 96 h)	GI50	Structure (SMILES)	Emax (Homo sapiens, 96 h)
< 1000 nM	–	CO[C@@H]1CCN(S(=O)(=O)Nc2ccc(F)c(Oc3ccc4ncn([C@H]5COC6(CCN(C7CCC(c8ccc(NC9CCC(=O)NC9=O)cc8F)CC7)CC6)C5)c(=O)c4c3)c2C#N)C1 (single isomer, unassigned) [Compound 109]	< 50%
> 10000 nM	–	CCN(C)S(=O)(=O)Nc1ccc(F)c(Oc2ccc3ncc(OC4CCN(C5CCC(c6ccc(NC7CCC(=O)NC7=O)cc6F)CC5)CC4)nc3c2)c1C#N (single isomer, unassigned) [Compound 110, 7-[2-cyano-3-[[ethyl(methyl)sulfamoyl]amino]-6-fluoro-phenoxy]-2-[[1-[4-[4-[(2,6-dioxo-3-piperidyl)amino]-2-fluoro-phenyl]cyclohexyl]-4-piperidyl]oxy]quinoxaline]	50 to 90%
< 1000 nM	–	Cn1nc(N2CCC(=O)NC2=O)c2cc(F)c(C3CCC(N4CCC5(CC4)C[C@@H](n4cnc6ccc(Oc7c(F)ccc(NS(=O)(=O)C8CCCC8)c7C#N)cc6c4=O)CO5)CC3)cc21 (single isomer, unassigned) [Compound 113]	< 50%
< 1000 nM	–	CO[C@H]1CCN(S(=O)(=O)Nc2ccc(F)c(Oc3ccc4ncn([C@H]5COC6(CCN(C7CCC(c8cc9c(cc8F)c(N8CCC(=O)NC8=O)nn9C)CC7)CC6)C5)c(=O)c4c3)c2C#N)C1 (single isomer, unassigned) [Compound 115]	< 50%
< 1000 nM	–	Cn1nc(N2CCC(=O)NC2=O)c2cc(F)c(C3CCC(N4CCC5(CC4)C[C@@H](n4cnc6ccc(Oc7c(F)ccc(NS(=O)(=O)N8CC[C@@H](F)C8)c7C#N)cc6c4=O)CO5)CC3)cc21 (single isomer, unassigned) [Compound 121]	< 50%
< 1000 nM	–	Cn1nc(N2CCC(=O)NC2=O)c2cc(F)c(C3CCC(N4CCC5(CC4)CC(n4cnc6ccc(Oc7c(F)ccc(NS(=O)(=O)N8CC[C@@H](F)C8)c7C#N)cc6c4=O)C5)CC3)cc21 (single isomer, unassigned) [Compound 122]	< 50%
1000 to 10000 nM	–	CCN(C)S(=O)(=O)Nc1ccc(F)c(Oc2ccc3ncn(CC4CCN(C5CCC(c6cc7c(cc6F)c(N6CCC(=O)NC6=O)nn7C)CC5)CC4)c(=O)c3c2)c1C#N (single isomer, unassigned) [Compound 126, 6-[2-cyano-3-[[ethyl(methyl)sulfamoyl]amino]-6-fluoro-phenoxy]-3-[[1-[4-[3-(2,4-dioxohexahydropyrimidin-1-yl)-5-fluoro-1-methyl-indazol-6-yl]cyclohexyl]-4-piperidyl]methyl]-4-oxo-quinazoline]	50 to 90%
1000 to 10000 nM	–	CCN(C)S(=O)(=O)Nc1ccc(F)c(Oc2ccc3ncn(C4CC5(CCN(C6CCC(c7cc8c(cc7F)c(N7CCC(=O)NC7=O)nn8C)CC6)CC5)C4)c(=O)c3c2)c1F (single isomer, unassigned) [Compound 178, 3-[7-[4-[3-(2,4-dioxohexahydropyrimidin-1-yl)-5-fluoro-1-methyl-indazol-6-yl]cyclohexyl]-7-azaspiro[3.5]nonan-2-yl]-6-[3-[[ethyl(methyl)sulfamoyl]amino]-2,6-difluoro-phenoxy]-4-oxo-quinazoline]	50 to 90%
1000 to 10000 nM	–	CCN(C)S(=O)(=O)Nc1ccc(F)c(C(=O)c2ccc3ncn(C4CC5(CCN(C6CCC(c7cc8c(cc7F)c(N7CCC(=O)NC7=O)nn8C)CC6)CC5)C4)c(=O)c3c2)c1F (single isomer, unassigned) [Compound 182, 3-[7-[4-[3-(2,4-dioxohexahydropyrimidin-1-yl)-5-fluoro-1-methyl-indazol-6-yl]cyclohexyl]-7-azaspiro[3.5]nonan-2-yl]-6-[3-[[ethyl(methyl)sulfamoyl]amino]-2,6-difluoro-benzoyl]-4-oxo-quinazoline]	50 to 90%
–	1000 to 10000 nM	CCN(C)S(=O)(=O)Nc1ccc(F)c(Oc2ccc3ncn(C4CC5(CCN(C6CCC(c7cc8c(cc7F)c(N7CCC(=O)NC7=O)nn8C)CC6F)CC5)C4)c(=O)c3c2)c1F (single isomer, unassigned) [Compound 184]	50 to 90%
< 1000 nM	–	CCN(C)S(=O)(=O)Nc1ccc(F)c(Oc2ccc3ncn([C@H]4COC5(CCC(N6CC7(CN(c8cc9c(cc8F)c(N8CCC(=O)NC8=O)nn9C)C7)C6)CC5)C4)c(=O)c3c2)c1C#N (stereo partly drawn) [Compound 27, 6-[2-cyano-3-[[ethyl(methyl)sulfamoyl]amino]-6-fluoro-phenoxy]-3-[(3R)-8-[6-[3-(2,4-dioxohexahydropyrimidin-1-yl)-5-fluoro-1-methyl-indazol-6-yl]-2,6-diazaspiro[3.3]heptan-2-yl]-1-oxaspiro[4.5]decan-3-yl]-4-oxo-quinazoline]	< 50%
1000 to 10000 nM	–	CCN(C)S(=O)(=O)Nc1ccc(F)c(Oc2ccc3ncn([C@H]4COC5(CCN(C6CC7(C6)CN(c6ccc(NC8CCC(=O)NC8=O)cc6F)C7)CC5)C4)c(=O)c3c2)c1C#N (stereo partly drawn) [Compound 35, (3R)-3-[6-[2-cyano-3-[[ethyl(methyl)sulfamoyl]amino]-6-fluoro-phenoxy]-4-oxo-quinazolin-3-yl]-8-[2-[4-[(2,6-dioxo-3-piperidyl)amino]-2-fluoro-phenyl]-2-azaspiro[3.3]heptan-6-yl]-1-oxa-8-azaspiro[4.5]decane]	50 to 90%
1000 to 10000 nM	–	CCN(C)S(=O)(=O)Nc1ccc(F)c(Oc2ccc3ncn([C@H]4COC5(CCC(N6CCN(c7ccc(NC8CCC(=O)NC8=O)cc7F)CC6)CC5)C4)c(=O)c3c2)c1C#N (stereo partly drawn) [Compound 40, 6-[2-cyano-3-[[ethyl(methyl)sulfamoyl]amino]-6-fluoro-phenoxy]-3-[(3R)-8-[4-[4-[(2,6-dioxo-3-piperidyl)amino]-2-fluoro-phenyl]piperazin-1-yl]-1-oxaspiro[4.5]decan-3-yl]-4-oxo-quinazoline]	50 to 90%
< 1000 nM	–	CC(C)S(=O)(=O)Nc1ccc(F)c(Oc2ccc3ncn([C@H]4COC5(CCN(C6CC7(C6)CN(c6cc8c(cc6F)c(N6CCC(=O)NC6=O)nn8C)C7)CC5)C4)c(=O)c3c2)c1C#N [Compound 134, N-[2-cyano-3-[3-[(3R)-8-[2-[3-(2,4-dioxohexahydropyrimidin-1-yl)-5-fluoro-1-methyl-indazol-6-yl]-2-azaspiro[3.3]heptan-6-yl]-1-oxa-8-azaspiro[4.5]decan-3-yl]-4-oxo-quinazolin-6-yl]oxy-4-fluoro-phenyl]propane-2-sulfonamide]	50 to 90%
1000 to 10000 nM	–	CN(CCO)S(=O)(=O)Nc1ccc(F)c(Oc2ccc3ncn(C4CC5(CCN(C6CC7(C6)CN(c6cc8c(cc6F)c(N6CCC(=O)NC6=O)nn8C)C7)CC5)C4)c(=O)c3c2)c1C#N (stereo not drawn) [Compound 151, 6-[2-cyano-6-fluoro-3-[[2-hydroxyethyl(methyl)sulfamoyl]amino]phenoxy]-3-[7-[2-[3-(2,4-dioxohexahydropyrimidin-1-yl)-5-fluoro-1-methyl-indazol-6-yl]-2-azaspiro[3.3]heptan-6-yl]-7-azaspiro[3.5]nonan-2-yl]-4-oxo-quinazoline]	> 90%
